Results from patent US6455593B1, “Method of dynamic retardation of cell cycle kinetics to potentiate cell damage” (priority 1995, dated 2002).
Read-outs that look alike come from different tables or passages of the source.

Columns and labels:
[1] = system: p. falciparum D6; assay: Parasite growth by 3H-hypoxanthine uptake in infected erythrocytes; type: cell-based; conditions: Plasmodium falciparum, D6, Erythrocyte, read-out: inhibitory concentrations (IC50), strain D6
[2] = system: p. falciparum W2; assay: as above; type: cell-based; conditions: Plasmodium falciparum, W2, Erythrocyte, read-out: inhibitory concentrations (IC50), strain W2
[3] = cited from earlier work
[4] = system: human malignant lymphoma cells (U937); assay: Clonogenic assay in methylcellulose; type: cell-based
Text: Elimination of a targeted cell population by a cytotoxic agent or agent combinations can not be assured if cells with generative capacity survive. The clonogenic assay in soft agar or methylcellulose is a practical and useful means of determining long-term effects of cytotoxic agents on a malignant cell population, since malignant cells are often capable of growing and forming colonies in these media. The colony forming efficiency of any line or population of malignant cells must be established from the colony count in relationship to the inoculum number and varies over a wide range. […] (same protocol as Example 2A, Table 7). Methylcellulose (MC) solution 2.1-2.3% was obtained from Stem Cell Technologies in Vancouver, B.C. and made up in a series of sterile tubes: (a) 0.4 ml MC stock solution, (b) 50 μl of NuSerum, (c) 2×10^4 cells from the treated cell suspension from the 24-well plate (about 250 μl) and (d) complete growth medium to make a final volume of 1 ml (final cell density=about 2×10^4 cells). A syringe with 18 g. needle was used to transfer load 100 μl of each sample the final cell preparation to each of triplicate wells in a 96-well plate. Thus the final cell number was about 2,000 cells/well. Plates were examined daily for colony formation. At days 3-5, colonies were counted. and colonies were overlaid with MTT: 25 μl, incubated overnight at 37° C. and 100 μl of 4% formalin was added to aid visualization and photography. […] The effective cytotoxicity was calculated as 1−C/C0 where C=the number of colonies formed by a sample of treated cells and C0=the number of colonies formed by an equal sample of untreated cells.

[5] = system: U937 cells; assay: Bivariate flow cytometry, dUTP terminal transferase labelling of DNA strand breaks; type: cell-based, human
Protocol: In a more sophisticated use of flow cytometry, DNA strand breaks were detected in nuclei by means of terminal transferase and homopolymer tailing as described by Gorczyca W. et al., Cancer Res 53:1945-1951 (1993). Samples of 1×10^6 cells were fixed in 1% buffered formaldehyde at 0° C. for 5 minutes, washed with PBS, resuspended in 70% ethanol and stored at […] for 48 hours. Cells were rehydrated in PBS, then suspended in 100 μl of cacodylate buffer and 2.5 mM CoCI2 to prepare them for the terminal transferase reaction. Biotin-labelled 16-dUTP and terminal transferase (Boehringer Mannheim, GmbH) were added to provide the final concentration of […] and 500 units/ml, respectively, and reacted with the cells at 37° C. for 30 minutes. Cells were rinsed in PBS, resuspended in a 4×saline-citrate buffer with 0.1% triton X100, 5% (w/v) non-fat powdered milk and 2.5 μg/ml FITC-labelled avidin, Boehringer Mannheim, supra, and incubated at room temperature for 30 minutes. Excess avidin-FITC was removed by washing the cells with PBS containing 0.1% triton X-100. In the cells with DNA damage, biotin-labelled dUTP was localized by the avidin-FITC: avidin and biotin form a strong linkage and reveal the extent of dUTP homopolymer tailing.
The amount of DNA per cell reflects the cell cycle position of each cell.

[6] = system: U937 cells; assay: DNA gel electrophoresis for DNA fragmentation (apoptosis); type: cell-based, human
Protocol: Samples of the U937 cells were exposed to a series of concentrations of dThd for 24 hr. Their DNA was isolated by lysis of cell samples in TE buffer containing TRIS 10 mM, EDTA 10 mM, SDS 0.5% and proteinase K 200 μg/ml at […] for 2 h. The proteins were precipitated in a IM solution of NaCl and centrifuged at 2,500×g for 30 min at […] DNAse free RNase (25 μg/ml) was added to the supernatant and incubated for 30 min at 37° C. Spectrophotometric quantitation of the DNA in the supernatant was quantitated by absorbance spectrophotometry at 260 nm. Volumes adjusted to contain equal amounts of DNA were mixed with a loading buffer of 40% (w/v) sucrose, 0.1M EDTA pH 8.0, 0.5% (w/v) sodium lauryl sulphate and 0.05% (w/v) bromophenol blue. […] Separated bands of DNA were stained with ethidium bromide and photographed in UV light (Fotodyne Inc.). […] The lowest molecular weight (about 180 bp) was determined with a standard 123 bp ladder from Sigma Chemical Co. (Cat. #D5042). The result shown is a classical “DNA ladder,” characteristic of the fragmentation of DNA macromolecules in apoptosis. See Tomei, supra; Obeid, supra; Gold, supra.

[7] = system: U937 cells; assay: Delayed proliferation assay (MTT 48 hr after washing)
Protocol: Microcultures treated with an agent or agents for a defined period (exactly as in Example 8) were washed. Seventy-five percent of the well volume was removed without disturbing the sedimented cells, and medium was added to yield a ⅕ dilution. In three additional washes and cell sedimentations, 50% of the medium was replaced such that the original concentration of agents was reduced to <5%. The metabolic mass of cells surviving or proliferating at 48 hr after the washings, including the untreated control cells, was then assayed by the MTT method (total elapsed time of 70 hours).
As an adjunct to the delayed proliferative assay, we utilized an “immediate plate” to quantitate the cell mass at the beginning of the experiment (N0=original cell mass). It required no more than a single column of microwells filled with 50 μl of growth medium each, and aliquots of cells in 50 μl identical to those transferred to the usual “test plate”. The immediate plate was incubated at 37° C. to complete the MTT assay for the same time as used for the test plate (i.e. 3 hr).
Taking the mean final cell mass at 70 hours as N, each data point represents a ratio of the mean cell mass of dThd-treated cells as fraction of N/N0. A ratio of N/N0=1 indicates no change in original cell mass (i.e. no growth of the targeted population). A ratio of N/N0>1 indicates overall growth of the targeted population. A ratio of N/N0<1 indicates overall population loss (cell killing).
Taking the mean final cell mass at 70 hours as N, positive percentages represent the % effective cytotoxicity (EC%) expressed as 1−N/N0 and converted to a percentage, in relation to concentration. Thus, EC obtained only for ratios of N/N0<1 (i.e. positive percentages).

[8] = 24 hr after RBC infection, 3H-hypoxanthine uptake
[9] = Homo sapiens, U-937, 96 h, read-out: Maximum effective cytotoxicity (1-C/C0), clonogenic

## C[C@@]1(CO)[C@H](O)CC[C@@]2(C)[C@H]1CC[C@H]1C[C@@H]3C[C@@]12CC[C@]3(O)CO [Aph, aphidicolin]
[1]; [8]
  IC50: 0.4 µM
[2]; [8]
  IC50: 0.123 µM
[3]; continuous infusion, minimal toxicity
  Peak plasma levels: 3 µg/mL

## CN[C@@H]1C[C@H]2O[C@@](C)([C@@H]1OC)n1c3ccccc3c3c4c(c5c6ccccc6n2c5c31)C(=O)NC4 [STSP, staurosporine]
[1]
  IC50: 0.19 µM
[4]; [9]
  Emax at 0.02 µM: 40 to 60%
[4]; optimal synergistic match of dThd and STSP, 96 hours
  Effective cytotoxicity, clonogenic: almost total cytotoxicity
[2]
  IC50: 0.15 µM
[5]; 4 hours of 0.2 mM dThd followed by 25 nM STSP for additional 7 hours
  dUTP labelling (DNA fragmentation): marked increase in the number of dUTP labelled cells
[6]; 50 nM STSP, 8 hours, U937
  DNA ladder pattern fragmentation: DNA fragmentation in U937 cells in 8 hours
[7]; 13 nM STSP in the presence of 0.5 mM dThd, 70 hours
  Effective cytotoxicity (1-N/N0): about 85%
[7]; 25 nM STSP in the presence of 0.1 mM dThd, 70 hours
  Effective cytotoxicity (1-N/N0): about 85%

## Cc1cn([C@H]2C[C@H](O)[C@@H](CO)O2)c(=O)[nH]c1=O [dThd, deoxythymidine]
[4]; [9]
  Emax at 100 µM: 40 to 60%
[5]; 3 mM dThd, 11 hours
  dUTP labelling (DNA fragmentation): appearance of cells with dUTP labelling, indicating DNA fragmentation
[3]; human subjects, oral doses
  Blood (plasma) levels achieved: up to 6 mM
[6]; 3 mM dThd, cell cycle arrest
  DNA fragmentation: pronounced DNA fragmentation
[6]; U937, 24 hr, FIG. 8
  dThd concentration giving fragmentation of DNA: > 0.5 mM
[7]; 0.1 mM dThd alone, FIG. 20
  Effect on cell growth: minimal effect on cell growth as compared to controls
[7]; dThd alone, 70 hours
  Concentration for effective cytotoxicity of 40% (EC40): More than 3 mM
